“And” between values parts separate entries of the source, which are not always exact repeats. Equal entries are not always repeated.
Experiment: Pharmacokinetic results from Phase II clinical trial: systemic exposure (plasma cantharidin) after topical application (Example 3)
Assay type: in vivo, human
Method: This example describes pharmacokinetic results from a Phase II clinical trial for the treatment of skin lesion resulting from Molluscum contagiosum. Patients received administrations of the cantharidin composition in Table 2 to Molluscum contagiosum lesions every 21 days for a maximum of 4 sessions or until complete clearance. Blood samples for systemic exposure evaluation were collected on Day 1, prior to the drug application, and 2 (±30 minutes), 6 (±1 hour) and 24 (±3 hours) hours post-application. The average age of the subjects was 7±3.5 years. The average body weight of the subjects was 58±34.6 lb. The average number of lesions per subject was 43.7±24.2.

C[C@@]12C(=O)OC(=O)[C@]1(C)[C@H]1CC[C@@H]2O1 [cantharidin]
plasma concentration of cantharidin (all subjects, all times sampled (2, 6, 24 hours post-application)): less than 3.3 ng/ml | Exposure (plasma concentration of cantharidin) (one line per subject, topical cantharidin composition of Table 2 on molluscum lesions, blood at 2, 6 and 24 hours post-application on Day 1, LLOQ 2.5 ng/ml): <2.5 ng/ml (16×) and 3.3 ng/ml | subjects with plasma concentration of cantharidin above the lower limit of quantification (2.5 ng/ml) (seventeen subjects): Only one of the seventeen subjects | plasma concentration of cantharidin (subjects as young as 2 years old, having over 100 lesions, having genital lesions, with as many as 2.26 lesions per lb: below LLOQ): < 2.5 ng/mL
